# Test results: patent US6864219B2, “Substituted aryl ketones” (Bayer Aktiengesellschaft, priority 2000, dated 2005)
# Where two headings read alike, the source gives them in different places.
# What was measured:
# weeds [1] = experiment: Post-emergence test (Example B), activity against weeds; type: in vivo; settings: test plants 5-15 cm sprayed; damage rated after three weeks
# Protocol: (§1) To produce a suitable preparation of active compound, 1 part by weight of active compound is mixed with the stated amount of solvent, the stated amount of emulsifier is added and the concentrate is diluted with water to the desired concentration.
# Test plants with a height of 5-15 cm are sprayed with the preparation of active compound such that the particular amounts of active compound desired are applied per unit area. The concentration of the spray liquor is chosen so that the particular amounts of active compound desired are applied in 1000 l of water/ha.
# After three weeks, the degree of damage to the plants is rated in % damage in comparison to the development of the untreated control.
# The figures denote: • 0%=no effect (like untreated control) • 100%=total destruction
# weeds [2] = experiment: Pre-emergence test (Example A), activity against weeds; type: in vivo; settings: soil sprayed 24 hours after sowing; damage rated after three weeks
# Protocol: as §1
# Seeds of the test plants are sown in normal soil. After 24 hours, the soil is sprayed with the preparation of active compound such that the particular amount of active compound desired is applied per unit area. The concentration of active compound in the spray liquor is chosen such that the particular amount of active compound desired is applied in 1000 liters of water per hectare.
# After three weeks, the degree of damage to the plants is rated in % damage in comparison to the development of the untreated control. The figures denote: • 0%=no effect (like untreated control) • 100%=total destruction
# [3] = log P determination by HPLC on reversed-phase column (C 18), EEC Directive 79/831 V.A8; type: physicochemical; settings: for logP (Physical data, Table 1): labelled a): acidic range, 0.1% aqueous phosphoric acid/acetonitrile gradient, 43° C.
# Protocol: The log P values given in Table 1 were determined in accordance with EEC Directive 79/831 V.A8 by HPLC (High Performance Liquid Chromatography) on a reversed-phase column (C 18). Temperature: 43° C.
# (a) Mobile phases for the determination in the acidic range: 0.1% aqueous phosphoric acid, acetonitrile; linear gradient of 10% acetonitrile to 90% acetonitrile—the corresponding data in Table 1 are labelled ^a).
# (b) Mobile phases for the determination in the neutral range: 0.01 molar aqueous phosphate buffer solution, acetonitrile, linear gradient from 10% acetonitrile to 90% acetonitrile—the corresponding data in Table 1 are labelled ^b).
# [4] = reversed-phase HPLC column (C 18), mobile-phase label not given, read-out: Log P (preparation examples)
# [5] = reversed-phase HPLC column (C 18), labelled a): acidic range; read-out: logP)
# [6] = reversed-phase HPLC column (C 18), labelled a): acidic range, starting materials of formula (II)/(IIA), read-out: logP (Physical data, Table 2)
SMILES,"activity against weeds, post-emergence (weeds [1])","activity against weeds, pre-emergence (weeds [2])","chromatographic logP [3, 4]","logP (Physical data, Table 1) [3]","chromatographic logP [3, 5]","chromatographic logP [3, 6]"
"CCn1ncc(C(=O)c2ccc(S(C)(=O)=O)c(OCCn3nc(C)n(C)c3=O)c2C)c1O [Example 1, 4-{3-[2-(3′,4′-dimethyl-1′,2′,4′-1H-triazolin-5′-on-1′-yl)-ethyloxy]-2-methyl-4-methylsulphonyl-benzoyl}-1-ethyl-5-hydroxy-1H-pyrazole]",strong activity,strong activity,1.23,,,
"CCOc1nn(COc2c(Cl)ccc(C(=O)C3C(=O)CCCC3=O)c2Cl)c(=O)n1C [Example 2, 2-[3-(3′-ethoxy-4′-methyl-1′,2′,4′-1H-triazolin-5′-on-1′-yl)-methoxy-2,4-dichloro-benzoyl]-1,3-cyclohexanedione]",strong activity,strong activity,2.52,,,
O=C1CCCC(O)=C1C(=O)c1ccc(Cl)c(OCn2ccccc2=O)c1Cl [Example 3],strong activity,strong activity,,logP = 2.04^a),,
Cc1nn(CCOc2c(Cl)ccc(C(=O)C3=C(O)CCCC3=O)c2Cl)c(=O)n1C [Example 4],strong activity,strong activity,,logP = 1.92^a),,
CCn1ncc(C(=O)c2ccc(Cl)c(OCCn3nc(C)n(C)c3=O)c2Cl)c1O [Example 5],strong activity,strong activity,,logP = 1.52^a),,
Cc1c(C(=O)C2=C(O)CCCC2=O)ccc(Cl)c1OCCn1nc(C)n(C)c1=O [Example 6],strong activity,strong activity,,logP = 1.93^a),,
CCn1ncc(C(=O)c2ccc(Cl)c(OCCn3nc(C)n(C)c3=O)c2C)c1O [Example 7],strong activity,strong activity,,logP = 1.68^a),,
CSc1ccc(C(=O)C2=C(O)CCCC2=O)c(Cl)c1OCCn1nc(C)n(C)c1=O [Example 8],strong activity,strong activity,,logP = 1.94^a),,
CCn1ncc(C(=O)c2ccc(SC)c(OCCn3nc(C)n(C)c3=O)c2Cl)c1O [Example 9],strong activity,strong activity,,logP = 1.58^a),,
CSc1ccc(C(=O)C2=C(O)CCCC2=O)c(C)c1OCCn1nc(C)n(C)c1=O [Example 10],strong activity,strong activity,,logP = 1.91^a),,
Cc1nn(CCOc2c(S(C)(=O)=O)ccc(C(=O)C3=C(O)CCCC3=O)c2Cl)c(=O)n1C [Example 11],strong activity,strong activity,,logP = 1.65^a),,
CSc1nn(COc2c(Cl)ccc(C(=O)C3=C(O)CCCC3=O)c2Cl)c(=O)n1C [Example 13],strong activity,,,logP = 2.44^a),,
"CCOc1nn(COc2c(Cl)ccc(C(=O)O)c2Cl)c(=O)n1C [II-8, 3-(3′-ethoxy-4′-methyl-1′,2′,4′-1H-triazolin-5′-on-1′-yl)-methoxy-2,4-dichloro-benzoic acid]",,,1.74,,,
"CCOC(=O)c1ccc(Cl)c(OCCn2nc(SC)n(C)c2=O)c1Cl [II-35, ethyl 2,4-dichloro-3-[2-(3-methylthio-4-methyl-5-oxo-1,2,4-triazolin-1-yl)-ethoxy]-benzoate]",,,,,2.66,2.66
"CCOC(=O)c1ccc(Cl)c(OC[C@@H]2CCC(=O)N2)c1Cl [II-61, ethyl (S)-2,4-dichloro-3-[(2-oxo-pyrrolidin-5-yl)-methoxy]-benzoate]",,,,,2.14,2.15
"CCOC(=O)c1ccc(Cl)c(OCCBr)c1Cl [ethyl 2,4-dichloro-3-(2-bromo-ethoxy)-benzoate]",,,,,3.98,
COC(=O)c1ccc(Cl)c(OCCCl)c1C [methyl 4-chloro-3-(2-chloro-ethoxy)-2-methyl-benzoate],,,3.52,,,
COC(=O)c1ccc(Cl)c(O)c1C [methyl 4-chloro-3-hydroxy-2-methyl-benzoate],,,2.14,,,
